Assay [1] deals with Staphylococcus aureus. In words: Antibacterial activity against Staphylococcus aureus ATCC29213 assessed as reduction in bacterial growth incubated for 24 hrs by CLSI protocol based assay. Type of assay: functional.
The test system of assay [2] is Enterococcus faecalis. In words: Antibacterial activity against vancomycin-resistant Enterococcus faecalis ATCC51299 assessed as reduction in bacterial growth incubated for 24 hrs by CLSI protocol based assay. Type of assay: functional.
For assay [3], the system named is Enterococcus faecalis. In words: Antibacterial activity against Enterococcus faecalis ATCC29212 assessed as reduction in bacterial growth incubated for 24 hrs by CLSI protocol based assay. Type of assay: functional.
The test system of assay [4] is Staphylococcus aureus. In words: Antibacterial activity against methicillin-resistant Staphylococcus aureus 21-5 assessed as reduction in bacterial growth incubated for 24 hrs by CLSI protocol based assay. Type of assay: functional.
Assay [5] concerns Escherichia coli. Nature of the assay: Antibacterial activity against Escherichia coli ATCC 25922 assessed as reduction in bacterial growth incubated for 24 hrs by CLSI protocol based assay. The class given is functional.
The subject of assay [6] is Enterococcus faecalis. In words: Antibacterial activity against Enterococcus faecalis assessed as decrease in bacterial growth measured after 16 to 18 hrs in presence of peptidoglycan. The class given is functional, organism-based. Conditions: time 16-18 hrs.
The test system of assay [7] is Cell membrane. Nature of the assay: Disruption of membrane integrity in Enterococcus faecalis ATCC29212 assessed as increase in red fluorescence at 8 times MIC incubated for 2 hrs by EthD-III dye based fluorescence microscopic analysis.
The subject of assay [8] is Cell membrane. Nature of the assay: Disruption of membrane integrity in […] Enterococcus faecalis ATCC29212 assessed as appearance of shrunken cell surface at 2.0 ug/ml incubated for 2 hrs by SEM analysis. The class given is cell membranes. Conditions: dose 2.0 µg/ml.
Assay [9] relates to Cell membrane. In words: Disruption of membrane integrity in […] Enterococcus faecalis ATCC29212 assessed as appearance of ruptured cell surface at 2.0 ug/ml incubated for 2 hrs by SEM analysis. The class given is cell membranes. As to conditions: dose 2.0 µg/ml.
For assay [10], the system named is Enterococcus faecalis. Nature of the assay: Antibacterial activity against Enterococcus faecalis assessed as decrease in bacterial growth measured after 16 to 18 hrs in presence of cardiolipin. Type of assay: functional, organism-based. As to conditions: time 16-18 hrs.
Assay [11] has as its system Escherichia coli. In words: Antibacterial activity against Escherichia coli ATCC 25922 in presence of polymyxin B nonapeptide. The class given is functional.
The subject of assay [12] is Enterococcus faecalis. Nature of the assay: Antibacterial activity against Enterococcus faecalis assessed as decrease in bacterial growth measured after 16 to 18 hrs in presence of phosphatidylglycerol. As to conditions: time 16-18 hrs. The class given is functional, organism-based.
The test system of assay [13] is Cell membrane. In words: Disruption of membrane integrity in […] Enterococcus faecalis ATCC29212 assessed as appearance of wrinkled cell surface at 2.0 ug/ml incubated for 2 hrs by SEM analysis. As to conditions: dose 2.0 µg/ml. Type of assay: cell membranes.
Assay [14] relates to Enterococcus faecalis. Nature of the assay: Antibacterial activity against Enterococcus faecalis assessed as decrease in bacterial growth measured after 16 to 18 hrs in presence of phosphatidylethanolamine. Type of assay: functional, organism-based. Conditions: time 16-18 hrs.
In assay [15] the test system is Escherichia coli. Nature of the assay: Antibacterial activity against Escherichia coli ATCC 25922. Type of assay: functional.
The test system of assay [16] is Cell membrane. In words: Disruption of membrane integrity in Enterococcus faecalis ATCC29212 assessed as increase in green fluorescence at 8 times MIC incubated for 2 hrs by NucGreen dye based fluorescence microscopic analysis. Type of assay: cell membranes.
The subject of assay [17] is Streptococcus mutans. In words: Antibacterial activity against Streptococcus mutans by CLSI protocol based assay. The class given is functional.
Assay [18] has as its system Streptococcus mutans. Nature of the assay: Bactericidal activity against Streptococcus mutans by CLSI protocol based assay. The class given is functional.

In ChEMBL document CHEMBL5620434, “Total Synthesis and Antibacterial Evaluation of Lupinifolin and Its Natural Analogues” (2024) one finds MIC, Activity and MBC data, which are given here for eight compounds.

≈ marks a conversion by molar mass, not a printed value. Calls of active or inactive are those of the source. The rule behind the calls is not given here.

Turning to `COc1ccc([C@@H]2CC(=O)c3c(O)c4c(c(CC=C(C)C)c3O2)OC(C)(C)C=C4)c(O)c1` [KHONKLONGINOL H], the MIC in assay [1] is 2 µg/mL (≈ 4.58 µM); in assay [2], 4 µg/mL (≈ 9.16 µM); in assay [3] it was 1 µg/mL (≈ 2.29 µM); in assay [4] it was 4 µg/mL (≈ 9.16 µM); in [5] it was over 128 µg/mL.
With `CC(C)=CCc1c(O)c2c(c3c1OC(C)(C)C=C3)OC(c1ccc(O)cc1O)CC2=O` (stereo not drawn), the MIC in assay [1] was 0.25 µg/mL (≈ 0.592 µM); in assay [2] it was 0.5 µg/mL (≈ 1.18 µM); in [11], 2 µg/mL; in [3], 0.25 µg/mL (≈ 0.592 µM); in assay [4] it was 0.25 µg/mL (≈ 0.592 µM); in assay [5], over 128 µg/mL. The compound also had a minimum inhibitory concentration (MIC) in [15] of over 128 µg/mL. Further, the outcome in [6] and in assay [14] was inactive. Further, the outcome in [7], in assay [8], in assay [9], in assay [10], in assay [12] and in [13] was Active. Moreover, in [16], the outcome was Active.
As for `CC(C)=CCc1c2c(c(O)c3c1O[C@H](c1ccccc1O)CC3=O)C=CC(C)(C)O2` [MINIMIFLORIN], the MIC is 2 µg/mL (≈ 4.92 µM) in assay [1]; 1 µg/mL (≈ 2.46 µM) in assay [2]; 0.5 µg/mL (≈ 1.23 µM) in assay [3]; 2 µg/mL (≈ 4.92 µM) in assay [4]; over 128 µg/mL in [5].
Compound `CC(C)C[C@@H]1NC(=O)[C@@H](Cc2ccccc2)NC(=O)[C@H](CCN)NC(=O)[C@@H](NC(=O)[C@H](CCN)NC(=O)[C@@H](N)[C@@H](C)O)CCNC(=O)C([C@@H](C)O)NC(=O)[C@H](CCN)NC(=O)[C@H](CCN)NC1=O` (stereo partly drawn) yielded a minimum inhibitory concentration (MIC) in [15] of over 128 µg/mL.
With `CC(C)=CCc1c2c(c(O)c3c1O[C@H](c1ccc(O)cc1)CC3=O)C=CC(C)(C)O2` [LUPINIFOLIN], the MIC is 2 µg/mL (≈ 4.92 µM) in assay [1]; 1 µg/mL (≈ 2.46 µM) in assay [2]; 0.25 µg/mL (≈ 0.615 µM) in assay [17]; 0.5 µg/mL (≈ 1.23 µM) in assay [3]; 2 µg/mL (≈ 4.92 µM) in assay [4]; over 128 µg/mL in [5]. Further, in assay [18], the MBC was 0.5 µg/mL (≈ 1.23 µM).
On to `CC1(C)S[C@@H]2[C@H](NC(=O)[C@H](N)c3ccccc3)C(=O)N2[C@H]1C(=O)O` [AMPICILLIN], for which the MIC is 0.5 µg/mL (≈ 1.43 µM) in assay [1], 0.5 µg/mL (≈ 1.43 µM) in assay [3], 32 µg/mL (≈ 91.6 µM) in assay [4] and 8 µg/mL (≈ 22.9 µM) in assay [5].
With `CC(C)=CCc1c2c(c(O)c3c1O[C@H](c1ccc(O)cc1O)CC3=O)C=CC(C)(C)O2` [FLEMICHIN D], the MIC in assay [1] was 0.5 µg/mL (≈ 1.18 µM); in assay [2] it was 0.5 µg/mL (≈ 1.18 µM); in assay [3] it was 0.5 µg/mL (≈ 1.18 µM); in assay [4], 0.5 µg/mL (≈ 1.18 µM); in assay [5], over 128 µg/mL.
Consider `CC(C)=CCc1c2c(c(O)c3c1O[C@H](c1ccccc1)CC3=O)C=CC(C)(C)O2`, for which the MIC in [1], in [2], in assay [3], in [4] and in assay [5] was over 128 µg/mL in each case.
